Results reported in patent US9475755B2, “Prophylactic agent for chronic kidney disease” (SBI Pharmaceuticals Co., Ltd., priority 2011, dated 2016).

Assays:
[1] = Administration of radiolabeled ALA (14C-ALA) to research the pharmacokinetics of ALA; format: in vivo
anemia in piglets = conditions: reported in Patent Document 1; cited from earlier work
chronic kidney disease [2] = experiment: Example 2: ingestion by a person diagnosed with chronic kidney disease, dose switched 50 mg / 5 mg / 50 mg; format: in vivo, human
Text: The effects of ingesting aminolevulinic acid phosphate and sodium ferrous citrate were examined for a person diagnosed with chronic kidney disease.

chronic kidney disease [3] = experiment: Example 3: ingestion by a person with chronic kidney disease after removal of one kidney; format: in vivo, human; conditions: after ingestion of 150 mg aminolevulinic acid phosphate and 172 mg sodium ferrous citrate per day
Text: The effects of ingesting aminolevulinic acid phosphate and sodium ferrous citrate were examined for a person diagnosed with chronic kidney disease after removing one of their kidneys about 5 years ago because of cancer.

[4] = (c) after one month of switching to 5 mg aminolevulinic acid phosphate + 5.74 mg sodium ferrous citrate
[5] = (d) after two months of switching to 5 mg aminolevulinic acid phosphate + 5.74 mg sodium ferrous citrate

Row | Compound | retention of radiation in the kidneys ([1]; ALA excessively administered, even if urine is discharged) | tissue accumulation of ALA-derived radiation ([1]; radiolabeled ALA (14C-ALA) administered) | prevention of anemia (anemia in piglets) | Serum creatinine (chronic kidney disease [2]; [4]) [mg/dL] | Urea nitrogen (chronic kidney disease [2]; [4]) [mg/dL] | eGFR (chronic kidney disease [2]; [4]) [mL/min/1.73 m^2] | Serum creatinine (chronic kidney disease [2]; [5]) [mg/dL] | Urea nitrogen (chronic kidney disease [2]; [5]) [mg/dL] | eGFR (chronic kidney disease [2]; [5]) [mL/min/1.73 m^2] | fatigue / quality of life (chronic kidney disease [2]; person who ingested aminolevulinic acid phosphate and sodium ferrous citrate) | eGFR value (in words) (chronic kidney disease [2]; when 50 mg of aminolevulinic acid phosphate was ingested) | eGFR value (in words) (chronic kidney disease [2]; when once again returned to 50 mg) | improvement rate of the eGFR value (in words) (chronic kidney disease [2]; when reduced to 5 mg aminolevulinic acid phosphate and 5.74 mg sodium ferrous citrate) | serum creatinine (FIG. 1, in words) (chronic kidney disease [3])
1 | NCC(=O)CCC(=O)O [ALA, 5-aminolevulinic acid] | radiation has remained in the kidneys even after the passing of time | found in not only the anticipated liver and muscles, but also in the kidneys | effective in preventing anemia in piglets | – | – | – | – | – | – | – | – | – | – | –
2 | aminolevulinic acid phosphate | – | – | – | 1.14 | 12.90 | 50.10 | 1.25 | 14.10 | 45.30 | relieved from the fatigue peculiar to chronic kidney disease | remarkably improved (increased) | remarkable improvement | lowered | remarkable reduction
